Among the test systems are NCI-H522; CCRF-CEM; HCT-15; U-251; DLD-1; SNB-19; M19-MEL; HOP-62; UO-31; NCI/ADR-RES; EKVX; XF498; A549; HCC 2998; HL-60; HOP-18; LOX IMVI; MCF7; SF-268; SK-MEL-2.
Experiment in all cases: NCI-60 cell line screen, 48 h

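Grown in 96-well plates, cells were treated for 48 hours with each compound at five concentrations. Insufficient inhibition: endpoint recorded as highest concentration tested. GI50 marks 50% less growth.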 The source made the active and inactive calls. Rule as the data show it: active = GI50 up to about 1.1 µM and inactive = higher.

Experimental findings from ChEMBL document CHEMBL1201862, “PubChem BioAssay data set” (2004) are described below.

As for `Brc1ccc2[nH]c3c(C4=NCCC4)nccc3c2c1`, the GI50 in the assay on NCI-H522 is 9.12 µM (inactive); in the assay with CCRF-CEM it was 10.4 µM (inactive); in the assay with HCT-15, 17 µM; in the assay with U-251 it was 12.5 µM (inactive); in the assay with DLD-1, 15.5 µM (inactive); in the assay on SNB-19 it was 21.7 µM (inactive). In addition, the GI50 with M19-MEL is 26.9 µM (inactive); in the assay on HOP-62 it was 11.6 µM (inactive); in the assay on UO-31, 14.8 µM (inactive); in the assay on NCI/ADR-RES it was 40 µM (inactive); in the assay with EKVX, 13 µM (inactive); in the assay with XF498 it was > 39.5 µM (inactive). In addition, the GI50 in the assay on A549 is 16.3 µM (inactive); with HCC 2998, 12.2 µM (inactive); with HL-60, 5.79 µM (inactive); in the assay on HOP-18, 10.2 µM (inactive); with LOX IMVI, 18 µM (inactive); in the assay with MCF7 it was 9.25 µM (inactive). In addition, the GI50 is 16.1 µM (inactive) in the assay with SF-268 and 13.9 µM (inactive) in the assay on SK-MEL-2.
